From patent US20260049089A1, “KRAS INHIBITOR COMPOUND” (SHANGHAI APEIRON THERAPEUTICS COMPANY LIMITED, priority 2022, published 2026)

Assays:
[1] = biological target: KRAS G12D GDP protein (His-tag-KRAS G12D) (Homo sapiens (Human), UniProt P01116, G12D); experiment: AlphaLISA compound screening assay, KRAS-GDP protein format; conditions: AlphaLISA with SOS1, GTP, cRAF, read-out: GDP-format IC50 (nM)/ Binding assay
Procedure: • Buffer 1: Composition and final concentrations: 25 mM HEPES, pH 7.5; 10 mM MgCl2; 0.01% Triton X-100. • Buffer 2: Composition and final concentrations: 25 mM HEPES, pH 7.5; 10 mM MgCl2; 0.01% Triton X-100; 1 mM DTT.
• 4> Use the ECHO555 automated liquid handler to prepare compounds. Test concentrations: The maximum compound concentration is 10 μM or 1 μM, serially diluted 3-fold, with 10 concentrations tested. Each concentration is tested in duplicate, with 0.5% DMSO as the solvent. • 5> High Signal Control Group (High Control): 30 replicates with 0.5% DMSO. KRAS protein is included in the reaction, representing 0% inhibition • 6> Low Signal Control Group (Low Control): 30 replicates with 0.5% DMSO. KRAS protein is not involved in the reaction, representing 100% inhibition
d. KRAS-GDP Protein Assay Procedure • 6> Add 5 μL of KRAS solution prepared with Buffer 1 to each well of the high-signal control group and compound test wells. Add 5 μL of Buffer 1 to each well of the low-signal control group. […] Incubate at room temperature for 1 hour. • 10> Measure the signal values using an EnVision plate reader. […] Incubate at room temperature for 1 hour. • 10> Measure the signal values using an EnVision plate reader. […] Incubate at room temperature for 1 hour. • 10> Measure the signal values using an EnVision plate reader. […]

[2] = biological target: KRAS G12D GTP protein (His-tag-KRAS G12D) (Homo sapiens (Human), UniProt P01116, G12D); experiment: AlphaLISA compound screening assay, KRAS-GTP protein format; conditions: AlphaLISA with cRAF, read-out: GTP-format IC50 (nM)/ Binding assay
Sequence of KRAS G12D GTP protein (His-tag-KRAS G12D) (P01116-2 other isoform, or with tags, fused parts or gaps G12D): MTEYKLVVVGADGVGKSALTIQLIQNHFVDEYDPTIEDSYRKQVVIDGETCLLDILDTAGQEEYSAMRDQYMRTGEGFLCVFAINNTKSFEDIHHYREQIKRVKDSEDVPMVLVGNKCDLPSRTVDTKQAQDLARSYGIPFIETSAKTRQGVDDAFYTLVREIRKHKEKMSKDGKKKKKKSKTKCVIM

[3] = biological target: KRAS G12D GCP protein (His-tag-KRAS G12D) (Homo sapiens (Human), UniProt P01116, G12D); experiment: AlphaLISA compound screening assay, KRAS-GCP protein format; conditions: AlphaLISA with cRAF, read-out: GCP-format IC50 (nM)/ Binding assay
Sequence of KRAS G12D GCP protein (His-tag-KRAS G12D) (P01116-2 other isoform, or with tags, fused parts or gaps G12D): as above

[4] = the molecule shown is the open-chain precursor; amine bond; 12-membered ring; PPh3/DIAD; THF; 32.5 mM; 65.0 °C
[5] = test system: pERK in AGS cells; experiment: ERK phosphorylation cell assay, AGS; format: cell-based; conditions: 3 hours compound incubation, read-out: pERK AGS_IC50
Summary of the method: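 AGS […] cells, seeded overnight, were treated with compound for 3 hours at 37° C. pERK was detected by in-cell immunofluorescence, with GAPDH as normalizer, using 800CW/680RD secondary antibodies. Mean relative p-ERK levels were fitted against log concentration, with DMSO as negative and 10 μM Reference as positive control.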

[6] = test system: pERK in AsPC-1 cells; experiment: ERK phosphorylation cell assay, AsPC-1; format: cell-based; conditions: AsPC-1 cells; read-out: pERK AsPC-1_IC50
[7] = test system: AGS cells; experiment: 3D cell proliferation assay (CellTiter-Glo 3D), AGS; format: cell-based; conditions: 5 days, read-out: 3D Proliferation Inhibition AGS_IC50
Procedure: (§1) Using a nanoliter liquid handling system (LABCYTE, P-0200), the diluted test compounds were added to a 384-well low-adsorption cell culture plate. Cells were seeded into the wells, and the plate was placed in an incubator at 37° C. with 5% CO2. After co-incubating the compounds and cells for 5 days, CellTiter-Glo® 3D reagent was added. Luminescence values were measured using an EnVision Multilabel Plate Reader (luminescence is proportional to the ATP content in the system, and ATP content directly reflects the number of viable cells). Finally, the IC50 values (half-maximal inhibitory concentrations) of the compounds were determined using non-linear fitting equations in XLFit software with the following parameters: […]
(§2) X: Logarithm of compound concentration • Y: Inhibition rate (%)
(§3) [formula] • Negative control: DMSO • Positive control: Medium only

[8] = test system: AsPC-1 cells; experiment: 3D cell proliferation assay (CellTiter-Glo 3D), AsPC-1; format: cell-based; conditions: 5 days, read-out: 3D Proliferation Inhibition AsPC-1_IC50
Procedure: as §1, §2, §3

Sequence of KRAS G12D GDP protein (His-tag-KRAS G12D) (P01116-2 other isoform, or with tags, fused parts or gaps G12D): as above

| Structure (SMILES) | IC50 [1] [nM] | IC50 [2] [nM] | IC50 [3] [nM] | ring closure, isolated yield [4] [%] | IC50 [5] [µM] | IC50 [6] [µM] | IC50 [7] [µM] | IC50 [8] [µM] |
| --- | --- | --- | --- | --- | --- | --- | --- | --- |
| O=C1CCCCCCCCCc2c(F)ccc3cc(O)cc(c23)-c2c(cc3c(N4CC5CCC(C4)N5)nc(OC[C@@]45CCCN4C[C@H](F)C5)nc3c2F)N1 [Example 11, 16-((1R,5S)-3,8-diazabicyclo[3.2.1]octan-3-yl)-3,20-difluoro-18-(((2R,7aS)-2-fluorotetrahydro-1H-pyrazin-7a(5H)-yl)methoxy)-22-hydroxy-5,6,7,8,9,10,11,12-octahydro-4H-naphtho[1′,8′:4,5,61][1]azacyclohexadecano[2,3-g]quinazolin-13(14H)-one] | 500 | 726 | 909 | – | – | – | – | – |
| COCOc1cc(-c2c(NC(=O)OCc3ccccc3)cc3c(N4C[C@H]5CC[C@@H](C4)N5C(=O)OC(C)(C)C)nc(OCC(F)(F)F)nc3c2F)c2c(CCCCCCO)c(F)ccc2c1 | – | – | – | 34 | – | – | – | – |
| O=C1CCCCCc2c(F)ccc3cc(O)cc(c23)-c2c(cc3c(N4CC5CCC(C4)N5)nc(OC[C@@]45CCCN4C[C@H](F)C5)nc3c2F)N1 [Example 9B, 12-((1R,5S)-3,8-diazabicyclo[3.2.1]octan-3-yl)-3,16-difluoro-14-(((2R,7aS)-2-fluorotetrahydro-1H-pyrazin-7a(5H)-yl)methoxy)-18-hydroxy-5,6,7,8-tetrahydro-4H-naphtho[1′,8′:4,5,6][1]azacyclododecino[2,3-g]quinazolin-9(10H)-one] | 1.6 | 1.95 | 58.5 | – | 0.017 | 0.07 | 0.093 | 0.222 |
